In patent US6946547B2, “Ecstasy-class analogs and use of same in detection of ecstasy-class compounds” (Microgenics Corporation, priority 2000, dated 2005):
Marks after values point to notes of the source that are not given here.

What was measured:
Antibody 1A9 = test: CEDIA ecstasy-class assay on a Hitachi clinical chemistry analyzer; format: binding, mouse; details: for detection in the CEDIA ecstasy-class MDMA assay: in words
Protocol: Antibodies obtained using any of the aforementioned techniques are screened or purified not only for their ability to react with an ecstasy-class compound, but also for a low cross-reactivity with potential interfering substances. “Cross reactivity” is determined in a quantitative immunoassay by establishing a standard curve using known dilutions of the target analyte, e.g., MDMA. […] The cross-reactivity is the apparent concentration divided by the actual concentration multiplied by 100. […] Alternatively, the cross-reactivity can be determined in the same type of immunoassay in which the antibody will ultimately be used.
• a. Preparation of Reagents:
Enzyme Donor (ED) Reagent was prepared as a liquid reagent with the components below:
Assay Protocol: The assay was performed on a Hitachi clinical chemistry analyzer as follows: Sample was pipetted into a reaction cuvette. EA reagent, containing antibody, was added. The mixture was incubated at 37° C. for approximately 5 minutes. ED reagent containing […] was subsequently added, and the incubation continued for 4 minutes at 37° C. The rate of substrate hydrolysis was measured photometrically at 570 nm (with subtraction of background at 660 nm) from four to five minutes after ED addition.

[1] = Standard CEDIA DAU Amphetamines assay, Hitachi 911; details: methamphetamine = 100
[2] = test system: 1A9 anti-ecstasy antibody; test: Enhanced CEDIA DAU Amphetamines assay (1A9 antibody and ED28-(MB-MDA)2 added); details: methamphetamine = 100
[3] = antibody 1A9, summary of detected ecstasy-class compounds
[4] = Antibody 1A9, Experiment 2, concentration 1,000,000 ng/mL
[5] = Antibody 1A9, Experiment 1, concentration 300 ng/mL
[6] = Antibody 1A9, Experiment 1, concentration 1000 ng/mL
[7] = Antibody 1A9, Experiment 1, concentration 5000 ng/mL
[8] = Antibody 1A9, Experiment 2, concentration 600,000 ng/mL

Compound	Cross-Reactivity (Antibody 1A9; [3])	Cross-reactivity, Standard CEDIA Amphetamines ([1]; concentration 300 ng/ml)	Cross-reactivity, Standard CEDIA Amphetamines ([1]; concentration 500 ng/ml)	Cross-reactivity, Enhanced CEDIA Amphetamines ([2]; concentration 300 ng/ml)	Cross-Reactivity (Antibody 1A9; [4])	Cross-Reactivity (Antibody 1A9; [5])	Cross-Reactivity (Antibody 1A9; [6])	Cross-Reactivity (Antibody 1A9; [7])	Cross-reactivity, Enhanced CEDIA Amphetamines ([2]; concentration 500 ng/ml)	detection in the CEDIA ecstasy-class MDMA assay (Antibody 1A9; antibody 1A9)	Cross-Reactivity (Antibody 1A9; [8])
CNC(C)Cc1ccc2c(c1)OCO2 (centres unmarked) [MDMA, 3,4-methylenedioxymethamphetamine]	100%	49	50	129	–	–	–	–	–	–	–
(±)ephedrine	–	–	–	–	0.0047%	–	–	–	–	–	–
CCNC(C)Cc1ccc2c(c1)OCO2 (centres unmarked) [MDEA, N-ethyl-3,4-methylenedioxyamphetamine]	155%	22	21	153	–	155* %	484%	–	–	–	–
CCC(Cc1ccc2c(c1)OCO2)NC (centres unmarked) [MBDB, N-methyl-1-(3,4-methylenedioxyphenyl)-2-butanamine]	23%	64	73	80	–	23%	29* %	18%	97	–	–
CC(N)Cc1ccc2c(c1)OCO2 (centres unmarked) [MDA, 3,4-methylenedioxyamphetamine]	55%	5	4	81	–	55%	68* %	63%	91	–	–
CNC(C)Cc1ccc(O)c(OC)c1 (centres unmarked) [HMMA, 4-hydroxy-3-methoxymethamphetamine]	–	–	–	–	–	<0.1%	<0.1%	<0.1%	–	detected neither	–
CN[C@@H](C)[C@@H](O)c1ccccc1 [pseudoephedrine]	–	–	–	–	–	–	–	–	–	–	0.0017%
CC(N)C(O)c1ccccc1 (centres unmarked) [phenylpropanolamine]	–	–	–	–	0.0041%	–	–	–	–	–	–
CCC(N)Cc1ccc2c(c1)OCO2 (centres unmarked) [BDB, 1-(3,4-methylenedioxyphenyl)-2-butanamine]	33%	5	7	105	–	33%	50* %	30%	125	–	–
CN[C@@H](C)Cc1ccccc1 [Methamphetamine]	–	100	100	100	–	–	–	–	100	detected neither	0.056%
